Experimental data reported in US20240246920A1, “TRIAZOLE DERIVATIVES WITH ANTIFUNGAL ACTIVITY” (King's College London, priority 2020, published 2024).
Values after ≈ are worked out from the molar mass of the structure shown. Read-outs that look alike come from different tables or passages of the source.

What was measured:
[1] = test system: Aspergillus carbonarius ATCC 8740; experiment: Aspergillus panel MIC; type: cell-based; conditions: Table 8
Method: (§1) Starter cultures of fungal strains to be tested were grown in 3 mL of RPMI 2% glucose media incubated at 37° C. with shaking at 200 rpm overnight. The culture media used was 900 mL H2O; 10.4 g RPMI 1640 (with L-glutamine and a pH indicator but without bicarbonate); 34.5 g MOPS and 18 g glucose. The pH of the media was adjusted to 7.0 with 1 M sodium hydroxide.
(§2) Solutions of the compound to be tested were prepared by dissolving the compound in DMSO and subsequently into media to the desired concentrations. 200 μL of compound solution was then added to the wells of the 96-well plate using a serial dilution method row-by row of the plate to give a compound concentration gradient across the plate of from 128 μg/mL to 0.25 μg/mL. The last two rows of each plate were control rows containing the culture media alone and the media plus fungi.
(§3) The fungi starter cultures were diluted 1:10 in water in cuvettes. This was then further diluted to an optical density (OD600) of 0.01 in media. 100 μL of the fungi was added to each well giving a starting concentration of fungus of 0.5-5×10^5/mL. One species of fungus was used on each plate. The plates were then held at 37° C. for 24 hours.
(§4) A plate reader was used to measure growth in each well at OD530 nm and the MIC was determined for each test compound. The MIC is defined as the lowest concentration giving rise to inhibition of ≥50% of that of the drug-free control well containing the fungus and media.
(§5) The compound of Example 2 (which corresponds to compound number 2) was tested against a panel of Aspergillus strains using a method analogous to that described above for the Candida Panel.

[2] = test system: Aspergillus fulavus ATCC 204304; experiment: Aspergillus panel MIC; type: cell-based; conditions: Table 8
Method: as §1, §2, §3, §4, §5

[3] = test system: Aspergillus fumigatus ATCC 1028; experiment: Aspergillus panel MIC; type: cell-based; conditions: Table 8
Method: as §1, §2, §3, §4, §5

[4] = test system: Aspergillus fumigatus ATCC 10894; experiment: Aspergillus panel MIC; type: cell-based; conditions: Table 8
Method: as §1, §2, §3, §4, §5

[5] = test system: Aspergillus fumigatus ATCC 13073; experiment: Aspergillus panel MIC; type: cell-based; conditions: Table 8
Method: as §1, §2, §3, §4, §5

[6] = test system: Aspergillus fumigatus ATCC 16424; experiment: Aspergillus panel MIC; type: cell-based; conditions: Table 8
Method: as §1, §2, §3, §4, §5

[7] = test system: Aspergillus fumigatus ATCC 204305; experiment: Aspergillus panel MIC; type: cell-based; conditions: Table 8
Method: as §1, §2, §3, §4, §5

[8] = test system: C. albicans NCPF3281; experiment: Candida panel MIC, serial dilution in 96-well plates; type: cell-based, Candida albicans; conditions: NCPF3281, read-out: MIC C. albicans NCPF3281
In short: (§6)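 Broth microdilution in RPMI 1640 with 2% glucose and MOPS at pH 7.0, compound 128 to 0.25 μg/mL, inoculum 0.5-5×10^5/mL. Incubation 24 h at 37 °C. MIC is the lowest concentration giving ≥50% growth inhibition versus drug-free control, read at OD530.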

[9] = test system: C. glabrata NCPF8018; experiment: as above; type: cell-based, Candida glabrata; conditions: Nakaseomyces glabratus
In short: (§7)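 MIC taken as lowest concentration inhibiting growth ≥50% relative to drug-free control, from OD530 after 24 hours at 37° C. Fungi at 0.5-5×10^5/mL were exposed to serially diluted compound in RPMI 1640/MOPS/2% glucose medium adjusted to pH 7.0.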

[10] = test system: C. krusei NCPF3876; experiment: microbe, parasite or virus in culture; type: cell-based, Candida krusei; conditions: Pichia kudriavzevii
In short: as §7

[11] = test system: C. parapsilosis NCPF3209; experiment: microbe, parasite or virus in culture; type: cell-based, Candida parapsilosis; conditions: Lodderomyces parapsilosis
In short: as §7

[12] = test system: Candida auris TDG2211; experiment: microbe, parasite or virus in culture; type: cell-based; conditions: Candidozyma auris, TDG2211; Table 4, extended panel; 24 hours, ≥50% inhibition; read-out: MIC Candida auris TDG2211
In short: (§8)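 Starter cultures grown overnight at 37° C in RPMI 1640/MOPS/2% glucose, pH 7.0; inoculum 0.5-5×10^5/mL with compound serially diluted from DMSO into media.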

[13] = test system: Candida auris TDG2506; experiment: microbe, parasite or virus in culture; type: cell-based; conditions: Candidozyma auris, TDG2506; Table 4, extended panel; 24 hours, ≥50% inhibition; read-out: MIC Candida auris TDG2506
In short: as §8

[14] = test system: C. auris TDG1912; experiment: Candida panel MIC, serial dilution in 96-well plates; type: cell-based; conditions: Candidozyma auris, TDG1912; Table 4; 24 hours, ≥50% inhibition; read-out: MIC C. auris TDG1912
In short: as §6

[15] = test system: C. tropicalis NCPF8760; experiment: as above; type: cell-based
In short: as §6

[16] = test system: Candida auris TDG1102; experiment: as above; type: cell-based; conditions: Candidozyma auris, read-out: MIC Candida auris TDG1102
In short: as §6

[17] = test system: Candida auris TDG2512; experiment: as above; type: cell-based; conditions: Candidozyma auris, TDG2512; Table 4, extended panel; 24 hours, ≥50% inhibition; read-out: MIC Candida auris TDG2512
In short: as §6

[18] = test system: C. albicans 3363; experiment: Candida albicans panel MIC; type: cell-based; conditions: Table 6, Candida albicans panel
Method: (§9) The minimum inhibitory concentration of test compounds were determined in a panel of Candida species (see Table 4 below), using the a serial dilution method in 96-well plates using the following protocol.
as §1, §2, §3, §4
(§10) The compounds shown in Table 6 were tested against a further panel of Candida albicans.

[19] = test system: C. albicans 3645; experiment: Candida albicans panel MIC; type: cell-based; conditions: Table 6, Candida albicans panel
Method: as §9, §1, §2, §3, §4, §10

[20] = test system: C. albicans 3880; experiment: Candida albicans panel MIC; type: cell-based; conditions: Table 6, Candida albicans panel
Method: as §9, §1, §2, §3, §4, §10

[21] = test system: C. albicans 3881; experiment: Candida albicans panel MIC; type: cell-based; conditions: Table 6, Candida albicans panel
Method: as §9, §1, §2, §3, §4, §10

[22] = test system: C. albicans 3882; experiment: Candida albicans panel MIC; type: cell-based; conditions: Table 6, Candida albicans panel
Method: as §9, §1, §2, §3, §4, §10

[23] = test system: C. albicans 3990; experiment: Candida albicans panel MIC; type: cell-based; conditions: Table 6, Candida albicans panel
Method: as §9, §1, §2, §3, §4, §10

[24] = test system: C. albicans 8112; experiment: Candida albicans panel MIC; type: cell-based; conditions: Table 6, Candida albicans panel
Method: as §9, §1, §2, §3, §4, §10

[25] = test system: panel of Candida species; experiment: Candida panel MIC, statements on the whole panel; type: cell-based; conditions: in words
Method: as §9, §1, §2, §3, §4

[26] = test system: Aspergillus strains; experiment: Aspergillus panel MIC, statement on the whole panel; type: cell-based; conditions: Table 8, in words
Method: as §5

[27] = test system: C. auris 8971; experiment: Candida panel MIC, serial dilution in 96-well plates; type: cell-based, Candida auris; conditions: Candidozyma auris, 8971; Table 4, extended panel; 24 hours, ≥50% inhibition; read-out: MIC C. auris 8971
In short: as §8

[28] = test system: C. auris 8977; experiment: as above; type: cell-based, Candida auris; conditions: Candidozyma auris, 8977; Table 4, extended panel; 24 hours, ≥50% inhibition; read-out: MIC C. auris 8977
In short: as §8

[29] = test system: C. auris 8984; experiment: as above; type: cell-based, Candida auris; conditions: Candidozyma auris, 8984; Table 4, extended panel; 24 hours, ≥50% inhibition; read-out: MIC C. auris 8984
In short: as §8

[30] = Candida albicans, Table 4, common panel, 24 hours, ≥50% inhibition
[31] = NCPF8018, Table 4, common panel, 24 hours, ≥50% inhibition, read-out: MIC C. glabrata NCPF8018
[32] = NCPF3876, Table 4, common panel, 24 hours, ≥50% inhibition, read-out: MIC C. krusei NCPF3876
[33] = NCPF3209, Table 4, common panel, 24 hours, ≥50% inhibition, read-out: MIC C. parapsilosis NCPF3209
[34] = NCPF8760, Table 4, common panel, 24 hours, ≥50% inhibition, read-out: MIC C. tropicalis NCPF8760

For `N#Cc1ccc(-c2ccc(NC3CCN(CC(O)(Cn4cncn4)c4ccc(F)cc4F)CC3)cc2)cc1` (stereo not drawn) [Compound number 2, 4′-((1-(2-(2,4-difluorophenyl)-2-hydroxy-3-(1H-1,2,4-triazol-1-yl)propyl)piperidin-4-yl)amino)-[1,1′-biphenyl]-4-carbonitrile], the “Minimum inhibitory concentration Aspergillus carbonarius ATCC 8740” value [1] was 0.25, the “Minimum inhibitory concentration Aspergillus fulavus ATCC 204304” value [2] was 0.5 and the “Minimum inhibitory concentration Aspergillus fumigatus ATCC 1028” value [3] was 0.25. The “Minimum inhibitory concentration Aspergillus fumigatus ATCC 10894” value [4] was 0.25, the “Minimum inhibitory concentration Aspergillus fumigatus ATCC 13073” value [5] was ≤0.125 and the “Minimum inhibitory concentration Aspergillus fumigatus ATCC 16424” value [6] was ≤0.125. For the same compound, the “Minimum inhibitory concentration Aspergillus fumigatus ATCC 204305” value [7] was ≤0.125.

With `N#Cc1ccc(-c2ccc(NC3CCN(CC(O)(Cn4cncn4)c4ccc(F)cc4F)CC3)cc2)cc1` (stereo not drawn) [Example 2, 4′-((1-(2-(2,4-difluorophenyl)-2-hydroxy-3-(1H-1,2,4-triazol-1-yl)propyl)piperidin-4-yl)amino)-[1,1′-biphenyl]-4-carbonitrile] the MIC [8, 30] was ≤ 3.9 ng/mL, the MIC ([8]; Table 6, Candida albicans panel) was ≤ 3.9 ng/mL and the MIC [9, 31] was 0.125 µg/mL (≈ 0.243 µM). The MIC [10, 32] was 3 to 125 ng/mL (≈ 0.00583 to 0.243 µM), the MIC [11, 33] was ≤ 3 ng/mL and the MIC [12] was 0.25 µg/mL (≈ 0.486 µM). It also gave an MIC [13] of 3 to 150 ng/mL (≈ 0.00583 to 0.291 µM), an MIC [14] of 0.03 µg/mL (≈ 0.0583 µM) and an MIC [15, 34] of 0.003 to 0.25 µg/mL (≈ 0.00583 to 0.486 µM). The MIC ([16]; TDG1102, 24 h) was 3 to 500 ng/mL (≈ 0.00583 to 0.972 µM), the MIC [17] was ≤ 3 ng/mL and the MIC [18] was 0.00781 to 0.125 µg/mL (≈ 0.0152 to 0.243 µM). It also gave an MIC [19] of 3.91 ng/mL (≈ 0.0076 µM), an MIC [20] of 7.81 ng/mL (≈ 0.0152 µM) and an MIC [21] of 0.0156 µg/mL (≈ 0.0303 µM). For the same compound, the MIC [22] was 0.0313 µg/mL (≈ 0.0608 µM), the MIC [23] was 0.0156 µg/mL (≈ 0.0303 µM) and the MIC [24] was 1.95 to 7.81 ng/mL (≈ 0.00379 to 0.0152 µM). For the same compound, the “Activity against Candida auris including resistant strains” value [25] was “highly active” and the “Effectiveness against the Aspergillus strains tested compared to fluconazole” value [26] was “highly effective”.

For `Cc1ccc(-c2ccc(NC3CCN(CC(O)(Cn4cncn4)c4ccc(F)cc4F)CC3)cc2)cc1` (stereo not drawn) [Example 3, 2-(2,4-Difluorophenyl)-1-(4-((4′-methyl-[1,1′-biphenyl]-4-yl)amino)piperidin-1-yl)-3-(1H-1,2,4-triazol-1-yl)propan-2-ol], the MIC [8, 30] was ≤ 0.98 ng/mL, the MIC ([9]; NCPF8018, read-out: MIC C. Glabrata NCPF8018) was 0.125 µg/mL (≈ 0.248 µM) and the MIC [9, 31] was 0.125 µg/mL (≈ 0.248 µM). It also gave an MIC ([10]; NCPF3876, read-out: MIC C. Krusei NCPF3876) of 4 to 16 ng/mL (≈ 0.00794 to 0.0318 µM), an MIC [10, 32] of 4 to 16 ng/mL (≈ 0.00794 to 0.0318 µM) and an MIC ([11]; NCPF3209, read-out: MIC C. Parapsilosis NCPF3209) of 4 ng/mL (≈ 0.00794 µM). For the same compound, the MIC [11, 33] was 4 ng/mL (≈ 0.00794 µM), the MIC [12] was 0.006 µg/mL (≈ 0.0119 µM) and the MIC [13] was 6 ng/mL (≈ 0.0119 µM). It also gave an MIC [14] of 0.008 to 0.06 µg/mL (≈ 0.0159 to 0.119 µM), an MIC [15, 34] of 0.015 µg/mL (≈ 0.0298 µM) and an MIC ([15]; NCPF8760, read-out: MIC C. Tropicalis NCPF8760) of 0.015 µg/mL (≈ 0.0298 µM). The MIC ([16]; TDG1102, Table 4, extended panel, 24 hours, ≥50% inhibition) was ≤ 3 ng/mL, the MIC [17] was ≤ 3 ng/mL and the MIC [27] was 6 ng/mL (≈ 0.0119 µM). The MIC [28] was 6 ng/mL (≈ 0.0119 µM), the MIC [29] was 6 ng/mL (≈ 0.0119 µM) and the “Activity against Candida auris including resistant strains” value [25] was “highly active”.
